≈ marks a conversion by molar mass, not a printed value. Calls of active or inactive are those of the source. The rule behind the calls is not given here.
Tests used:
[1] = tested on: Escherichia coli; experiment: Antibacterial activity against Escherichia coli ATCC 47076 assessed as bacterial growth inhibition; format: functional
[2] = tested on: Klebsiella pneumoniae; experiment: Antibacterial activity against Klebsiella pneumoniae ATCC 10031 assessed as bacterial growth inhibition; format: functional
[3] = tested on: Acinetobacter baumannii; experiment: Antibacterial activity against Acinetobacter baumannii ATCC 19606 assessed as bacterial growth inhibition; format: functional; details: ATCC 19606 = CIP 70.34 = JCM 6841
[4] = tested on: Pseudomonas aeruginosa; experiment: Antibacterial activity against Pseudomonas aeruginosa ATCC 27853 assessed as bacterial growth inhibition; format: functional
[5] = tested on: Klebsiella pneumoniae; experiment: Antibacterial activity against Klebsiella pneumoniae ATCC 700721 assessed as bacterial growth inhibition; format: functional
[6] = tested on: Klebsiella pneumoniae; experiment: Antibacterial activity against Klebsiella pneumoniae JCM 1662 assessed as bacterial growth inhibition; format: functional
[7] = tested on: Pseudomonas aeruginosa; experiment: Antibacterial activity against Pseudomonas aeruginosa ATCC 15692 assessed as bacterial growth inhibition; format: functional
[8] = tested on: Klebsiella pneumoniae; experiment: Antibacterial activity against Klebsiella pneumoniae IHMA 1387833 assessed as bacterial growth inhibition; format: functional
[9] = tested on: Acinetobacter baumannii; experiment: Antibacterial activity against Acinetobacter baumannii IHMA 1312713 assessed as bacterial growth inhibition; format: functional
[10] = tested on: Pseudomonas aeruginosa; experiment: Antibacterial activity against Pseudomonas aeruginosa IHMA 1375891 assessed as bacterial growth inhibition; format: functional
[11] = Cytotoxicity against HEK293 cells; format: cell-based; details: human, HEK293 cells
[12] = tested on: HepG2; experiment: Cytotoxicity against human HepG2 cells; format: functional
[13] = tested on: Pseudomonas aeruginosa; experiment: Antibacterial activity against multidrug resistance Pseudomonas aeruginosa; format: functional, organism-based
[14] = tested on: Escherichia coli; experiment: Antibacterial activity against Escherichia coli; format: functional, organism-based
[15] = tested on: Acinetobacter; experiment: Antibacterial activity against Acinetobacter sp.; format: functional, organism-based
[16] = tested on: Klebsiella pneumoniae; experiment: Antibacterial activity against Klebsiella pneumoniae; format: functional, organism-based

| MIC [1] [µg/mL] | MIC [2] [µg/mL] | MIC [3] [µg/mL] | MIC [4] [µg/mL] | MIC [5] [µg/mL] | MIC [6] [µg/mL] | MIC [7] [µg/mL] | MIC [8] [µg/mL] | MIC [9] [µg/mL] | MIC [10] [µg/mL] | Compound | CC50 [11] [µM] | CC50 [12] [µM] | Activity [13] | Activity [14] | Activity [15] | Activity [16] |
| --- | --- | --- | --- | --- | --- | --- | --- | --- | --- | --- | --- | --- | --- | --- | --- | --- |
| 4 (≈ 3.59 µM) | 128 (≈ 115 µM) | > 256 | 128 (≈ 115 µM) | > 256 | > 256 | > 256 | > 256 | > 256 | > 256 | C/C=C1\NC(=O)C(NC(=O)Cc2ccc(NC(=O)Nc3c(C)cccc3C)c(Cl)c2)C(O)CNC(=O)C(C(O)CN)NC(=O)C(C(O)CN)NC(=O)[C@H](CCCNC(=N)N)NC(=O)[C@H](CC(C)C)NC(=O)[C@H](CCN)NC1=O (stereo partly specified) | > 64 | > 64 |  |  |  |  |
|  |  |  |  |  |  |  |  |  |  | C/C=C1\NC(=O)C(NC(=O)CCCCCCCCC)C(O)CNC(=O)C(C(O)CN)NC(=O)C(C(O)CN)NC(=O)[C@H](CCCNC(=N)N)NC[C@H](CC(C)C)NC(=O)[C@H](CCN)NC1=O (stereo partly specified) |  |  | Active | Active | inactive | inactive |
| 32 (≈ 30.1 µM) | > 64 | > 64 | 16 (≈ 15 µM) | 64 (≈ 60.1 µM) | > 64 | > 64 | > 64 | > 64 | > 64 | C/C=C1\NC(=O)C(NC(=O)c2cn3c4c(c(F)c(F)cc4c2=O)OC[C@@H]3C)C(O)CNC(=O)C(C(O)CN)NC(=O)C(C(O)CN)NC(=O)[C@H](CCCNC(=N)N)NC(=O)[C@H](CC(C)C)NC(=O)[C@H](CCN)NC1=O (stereo partly specified) | > 64 | > 64 |  |  |  |  |
| 2 (≈ 1.75 µM) | 4 (≈ 3.51 µM) | 32 (≈ 28.1 µM) | 8 (≈ 7.01 µM) | > 256 | > 256 | 32 (≈ 28.1 µM) | > 256 | > 256 | 64 (≈ 56.1 µM) | C/C=C1\NC(=O)C(NC(=O)Cc2c(C)n(C(=O)c3ccc(Cl)cc3)c3ccc(OC)cc23)C(O)CNC(=O)C(C(O)CN)NC(=O)C(C(O)CN)NC(=O)[C@H](CCCNC(=N)N)NC(=O)[C@H](CC(C)C)NC(=O)[C@H](CCN)NC1=O (stereo partly specified) | > 64 | > 64 |  |  |  |  |
|  |  |  |  |  |  |  |  |  |  | C/C=C1\NC(=O)C(NC(=O)CCCCCCCCCCC)C(O)CNC(=O)C(C(O)CN)NC(=O)C(C(O)CN)NC(=O)[C@H](CCCNC(=N)N)NC[C@H](CC(C)C)NC(=O)[C@H](CCN)NC1=O (stereo partly specified) |  |  | Active | Active | inactive | inactive |
| 4 (≈ 3.59 µM) | 4 (≈ 3.59 µM) | 256 (≈ 230 µM) | 16 (≈ 14.4 µM) | > 256 | > 256 | > 256 | > 256 | > 256 | > 256 | C/C=C1\NC(=O)C(NC(=O)C2CC3(CCN(C(=O)OC(C)(C)C)CC3)c3ccccc32)C(O)CNC(=O)C(C(O)CN)NC(=O)C(C(O)CN)NC(=O)[C@H](CCCNC(=N)N)NC(=O)[C@H](CC(C)C)NC(=O)[C@H](CCN)NC1=O (stereo partly specified) | > 64 | > 64 |  |  |  |  |
| 8 (≈ 7.37 µM) | > 256 | > 256 | 32 (≈ 29.5 µM) | > 256 | > 256 | > 256 | > 256 | > 256 | > 256 | C/C=C1\NC(=O)C(NC(=O)C2CCCN(C(=O)c3ccc(Cl)c(Cl)c3)C2)C(O)CNC(=O)C(C(O)CN)NC(=O)C(C(O)CN)NC(=O)[C@H](CCCNC(=N)N)NC(=O)[C@H](CC(C)C)NC(=O)[C@H](CCN)NC1=O (stereo partly specified) | > 64 | > 64 |  |  |  |  |
| 128 (≈ 112 µM) | 64 (≈ 55.9 µM) | > 128 | 32 (≈ 28 µM) | > 256 | > 128 | > 128 | > 256 | > 128 | > 128 | C/C=C1\NC(=O)C(NC(=O)c2cn3c4c(c(N5CCN(C)CC5)c(F)cc4c2=O)OC[C@@H]3C)C(O)CNC(=O)C(C(O)CN)NC(=O)C(C(O)CN)NC(=O)[C@H](CCCNC(=N)N)NC(=O)[C@H](CC(C)C)NC(=O)[C@H](CCN)NC1=O (stereo partly specified) | > 64 | > 64 |  |  |  |  |
| 1 | 1 | 2 | 2 | 1 | 4 | 2 | 32 | 8 | 64 | COLISTIN |  | > 64 |  |  |  |  |
| 4 (≈ 3.7 µM) | 4 (≈ 3.7 µM) | 8 (≈ 7.4 µM) | 8 (≈ 7.4 µM) | > 256 | > 256 | 128 (≈ 118 µM) | > 256 | 64 (≈ 59.2 µM) | 128 (≈ 118 µM) | C/C=C1\NC(=O)C(NC(=O)c2cn(-c3ccccc3)nc2-c2ccc(Cl)cc2)C(O)CNC(=O)C(C(O)CN)NC(=O)C(C(O)CN)NC(=O)[C@H](CCCNC(=N)N)NC(=O)[C@H](CC(C)C)NC(=O)[C@H](CCN)NC1=O (stereo partly specified) | > 64 | > 64 |  |  |  |  |
| 16 (≈ 15.1 µM) | 256 (≈ 242 µM) | > 256 | 128 (≈ 121 µM) | > 256 | > 256 | > 256 | > 256 | > 256 | > 256 | C/C=C1\NC(=O)C(NC(=O)c2ccc(-c3nnn(CC(=O)N(C)C)n3)cc2)C(O)CNC(=O)C(C(O)CN)NC(=O)C(C(O)CN)NC(=O)[C@H](CCCNC(=N)N)NC(=O)[C@H](CC(C)C)NC(=O)[C@H](CCN)NC1=O (stereo partly specified) | > 64 | > 64 |  |  |  |  |
|  |  |  |  |  |  |  |  |  |  | C/C=C1\NC(=O)C(NC(=O)CCC/C=C\CCCCCC)C(O)CNC(=O)C(C(O)CN)NC(=O)C(C(O)CN)NC(=O)[C@H](CCCNC(=N)N)NC[C@H](CC(C)C)NC(=O)[C@H](CCN)NC1=O (stereo partly specified) |  |  | Active | Active | inactive | inactive |
| 2 (≈ 1.94 µM) | 8 (≈ 7.77 µM) | > 256 | 8 (≈ 7.77 µM) | 16 (≈ 15.5 µM) | > 256 | > 256 | > 256 | > 256 | > 256 | C/C=C1\NC(=O)C(NC(=O)CCc2nnc(-c3ccc(OC)cc3)[nH]2)C(O)CNC(=O)C(C(O)CN)NC(=O)C(C(O)CN)NC(=O)[C@H](CCCNC(=N)N)NC(=O)[C@H](CC(C)C)NC(=O)[C@H](CCN)NC1=O (stereo partly specified) | > 64 | > 64 |  |  |  |  |
| 2 (≈ 1.94 µM) | 2 (≈ 1.94 µM) | 8 (≈ 7.76 µM) | 8 (≈ 7.76 µM) | 2 (≈ 1.94 µM) | > 256 | > 256 | > 256 | > 256 | > 256 | C/C=C1\NC(=O)C(NC(=O)CCc2nc(-c3ccc(OC)cc3)no2)C(O)CNC(=O)C(C(O)CN)NC(=O)C(C(O)CN)NC(=O)[C@H](CCCNC(=N)N)NC(=O)[C@H](CC(C)C)NC(=O)[C@H](CCN)NC1=O (stereo partly specified) | > 64 | > 64 |  |  |  |  |
| 16 (≈ 14.9 µM) | 128 (≈ 119 µM) | > 256 | 256 (≈ 238 µM) | > 256 | > 256 | > 256 | > 256 | > 256 | > 256 | C/C=C1\NC(=O)C(NC(=O)c2ccc(NS(=O)(=O)Cc3ccccc3)cc2)C(O)CNC(=O)C(C(O)CN)NC(=O)C(C(O)CN)NC(=O)[C@H](CCCNC(=N)N)NC(=O)[C@H](CC(C)C)NC(=O)[C@H](CCN)NC1=O (stereo partly specified) | > 64 | > 64 |  |  |  |  |
| 2 (≈ 2 µM) | 8 (≈ 7.98 µM) | 256 (≈ 255 µM) | > 256 | 32 (≈ 31.9 µM) | > 256 | > 256 | > 256 | > 256 | > 256 | C/C=C1\NC(=O)C(NC(=O)CCc2nc(-c3ccncc3)no2)C(O)CNC(=O)C(C(O)CN)NC(=O)C(C(O)CN)NC(=O)[C@H](CCCNC(=N)N)NC(=O)[C@H](CC(C)C)NC(=O)[C@H](CCN)NC1=O (stereo partly specified) | > 64 | > 64 |  |  |  |  |
| 8 (≈ 7.45 µM) | 32 (≈ 29.8 µM) | 256 (≈ 238 µM) | 8 (≈ 7.45 µM) | > 256 | > 256 | > 256 | > 256 | > 256 | > 256 | C/C=C1\NC(=O)C(NC(=O)[C@H]2CC[C@H](CNC(=O)OCc3ccccc3)CC2)C(O)CNC(=O)C(C(O)CN)NC(=O)C(C(O)CN)NC(=O)[C@H](CCCNC(=N)N)NC(=O)[C@H](CC(C)C)NC(=O)[C@H](CCN)NC1=O (stereo partly specified) | > 64 | > 64 |  |  |  |  |
| 9 (≈ 8.37 µM) | 8 (≈ 7.44 µM) | 4 (≈ 3.72 µM) | 16 (≈ 14.9 µM) | 8 (≈ 7.44 µM) | 16 (≈ 14.9 µM) | 16 (≈ 14.9 µM) | > 256 | 128 (≈ 119 µM) | 256 (≈ 238 µM) | C/C=C1\NC(=O)C(NC(=O)CCCCCCCCC(=O)OCc2ccccc2)C(O)CNC(=O)C(C(O)CN)NC(=O)C(C(O)CN)NC(=O)[C@H](CCCNC(=N)N)NC(=O)[C@H](CC(C)C)NC(=O)[C@H](CCN)NC1=O (stereo partly specified) | > 64 | > 64 |  |  |  |  |
| 8 (≈ 7.05 µM) | 8 (≈ 7.05 µM) | 16 (≈ 14.1 µM) | 16 (≈ 14.1 µM) | 128 (≈ 113 µM) | 256 (≈ 226 µM) | 64 (≈ 56.4 µM) | 256 (≈ 226 µM) | 32 (≈ 28.2 µM) | 128 (≈ 113 µM) | C/C=C1\NC(=O)C(NC(=O)c2ccc(-c3cc(-c4ccc(OCCCCC)cc4)on3)cc2)C(O)CNC(=O)C(C(O)CN)NC(=O)C(C(O)CN)NC(=O)[C@H](CCCNC(=N)N)NC(=O)[C@H](CC(C)C)NC(=O)[C@H](CCN)NC1=O (stereo partly specified) |  | 35 |  |  |  |  |
|  |  |  |  |  |  |  |  |  |  | C/C=C1\NC(=O)C(NC(=O)CCCCC/C=C\CCCCCC)C(O)CNC(=O)C(C(O)CN)NC(=O)C(C(O)CN)NC(=O)[C@H](CCCNC(=N)N)NC[C@H](CC(C)C)NC(=O)[C@H](CCN)NC1=O (stereo partly specified) |  |  | Active | Active | inactive | inactive |

From ChEMBL document CHEMBL4819127, “Syntheses and antimicrobial activities of ogipeptin derivatives” (Bioorg Med Chem Lett, 2021)
